Measured values: article PMC10447463, “Data-mining unveils structure–property–activity correlation of viral infectivity enhancing self-assembling peptides” (Nature Communications, 2023)
Where “and” joins values, the source holds several entries; their conditions need not be identical. Equal entries are not always repeated. Where two headings read alike, the source gives them in different places.

Experiments:
[1] = Turbidity, derived count rate of scattered light; type: physicochemical; settings: for Zeta Count Rate / kcps: mean; for Log Count Rate: log of derived count rate; for Count Rate: turbidity
In short: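 Samples: 1 mg/mL in PBS pH 7.4 (from DMSO), 1 d at RT, then diluted in 1 mM KCl immediately before measurement. Triplicates, two independent runs averaged.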

[2] = Zeta-potential measurement; type: physicochemical; settings: for Zeta Pot. / mV: mean; for Zeta-pot. / mV: zeta potential of peptide, Fig S15 source data
In short: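 Peptides diluted from DMSO stock into PBS pH 7.4 to 1 mg/mL and aged 1 d at RT, then diluted into 1 mM aqueous KCl. Zeta potential derived from electrophoretic mobility via Smoluchowski; triplicates, averaged over two independent experiments.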

[3] = tested on: HIV-1 infection of TZM-bl cells; experiment: HIV-1 infectivity enhancement assay, β-galactosidase luminescence; type: cell-based; settings: for Absolute Infectivity / RLU /s (Feb2021): unrounded values of the 1.3 µM column; for Log10 Inf. rel. to EF-C: log10 of HIV-1 infection of TZM-bl cells relative to EF-C, Fig S15 source data, asymmetric std dev errors; for Rel-to EFC / n-fold to virus: Fig S8 panels B, D; for Rel-to EFC: infectivity enhancement relative to EF-C
[4] = β-sheet content by ATR-FT-IR; type: physicochemical
In short: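 Measurements on freeze-dried PNF powders used a diamond ATR element, 64 scans each, with β-sheet fraction derived as previously reported. CR reflects loss of fluorescamine-reactive monomer after 3 kDa ultrafiltration, averaged over triplicates.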

[5] = derived count rate of scattered light, std deviation in next column
[6] = Feb2021, 1.3 µM value relative to virus only (0 µM)
[7] = Feb2021, log10 of infectivity relative to EF-C
[8] = Feb2021, n-fold infectivity relative to EF-C
[9] = infectivity class (low / medium / high) of each library peptide, main list in c1-c6, same classes repeated in sub-lists of sequences containing the hydrophobicity/charge patterns P+,H0,P+,H0,P0,H0,P0, P+,H0,P0,H0,P0,H0,P0, P+,H0,P0,H0
[10] = Fig S8 panels A, C, asymmetric log errors
[11] = Fig S8 panels B, D, derived count rate of scattered light
[12] = infectivity n-fold relative to virus alone
[13] = category 1 or 0 from count rate, key not given
[14] = derived count rate of scattered light, std deviation in separate column
[15] = Feb2021, Log10 of infectivity relative to EF-C
[16] = Feb2021, n-fold enhancement relative to EF-C
[17] = Feb2021 run, infectivity n-fold relative to virus alone
[18] = Feb2021 run, log10 of infectivity relative to EF-C
[19] = Feb2021 run, n-fold infectivity relative to EF-C
[20] = infectivity class (low / medium / high) of the peptide in the sequence-pattern analysis, Fig. S22-A4, class limits not given

| Substance | Zeta Count Rate Category ([1]; category 1/0, no key printed) | Zeta Count Rate / kcps [1, 5] [kcps] | Zeta category ( +1 = if > 4 mV;-1 = if < -4 mV; 0 = -4mV to 4 mV) [2] | Zeta Pot. / mV ([2]; Std Zeta in next column) [mV] | Zeta Pot. / mV ([2]; Std in separate column) [mV] | Zeta-pot. / mV [2] [mV] | n-fold to virus (Feb2021) [3, 6] | Log10 of Rel to EFC (Feb2021) [3, 7] | Rel-to EFC (Feb-2021) [3, 8] | Absolute Infectivity / RLU /s (Feb2021) ([3]; Feb2021) [RLU /s] | infectivity [3, 9] | Log10 Inf. rel. to EF-C [3] | FTIR ß-sheet content/ % [4] [%] | FTIR ß-sheet content/ % ([4]; ATR-FT-IR) | Log Count Rate [1, 10] | Log Count Rate ([1]; Fig S8 panels B, D) | Count Rate [1, 11] | Rel-to EFC [3] | n-fold to virus [3, 12] | Zeta Count Rate Category [1, 13] | further results |
| --- | --- | --- | --- | --- | --- | --- | --- | --- | --- | --- | --- | --- | --- | --- | --- | --- | --- | --- | --- | --- | --- |
| CEIEIQINMWQ [TM143] | 1 | 1570 | -1 (-1 = if < -4 mV) | -25.8 | -25.8 | -25.8 | 9.188 | -0.6602 | 0.2187 | 12066.66667 | medium | -0.6602 | 49.9 | 49.9% |  |  |  |  |  |  | Zeta Count Rate / kcps ([1]; derived count rate from zeta measurement): 1570 kcps; Zeta Count Rate Category ([1]; key not given): 1; Rel-to EFC (Feb-2021) ([3]; infectivity enhancement relative to EF-C (=1), Feb2021 run): 0.2187; n-fold to virus (Feb2021) ([3]; infectivity n-fold relative to virus only, Feb2021 run): 9.188; Log10 of Rel to EFC (Feb2021) ([3]; log10 of infectivity relative to EF-C, Feb2021 run): -0.6602 |
| CHLHLQL [CN9] | 1 | 1155 | -1 (-1 = if < -4 mV) | -12.27 |  | -12.27 | 4.127 | -1.008 | 0.09822 | 2934 | low | -1.008 |  | 49.52% | 3.062 | 3.062 | 1154.63 | 0.09822 | 4.127 |  |  |
| CKFKFQF [BL4] | 1 | 5303 | 1 (+1 = if > 4 mV) | 19.73 | 19.73 | 19.73 | 51.79 |  | 1.233 | 20066.66667 |  | 0.09083 | 47.43 | 47% and 47.43% | 3.725 | 3.725 | 5303.37 | 1.233 | 51.79 | 1 | Zeta Count Rate / kcps [1, 14]: 5303 kcps; Zeta category ( +1 = if > 4 mV;-1 = if < -4 mV; 0 = -4mV to 4 mV) ([2]; category from zeta potential): 1 (+1 = if > 4 mV); Log10 of Rel to EFC (Feb2021) [3, 15]: 0.09083; Rel-to EFC (Feb-2021) [3, 16]: 1.233; n-fold to virus (Feb2021) [3, 17]: 51.79; Log10 of Rel to EFC (Feb2021) [3, 18]: 0.09083; Rel-to EFC (Feb-2021) [3, 19]: 1.233; infectivity [3, 20]: high |
| CKFKFQFNM [BL3] | 1 | 2224 | 1 (+1 = if > 4 mV) | 15.13 | 15.13 | 15.13 | 52.19 |  | 1.242 | 28183.33333 | high | 0.09417 | 41 | 41% | 3.347 | 3.347 | 2223.63 | 1.242 | 52.19 | 1 | Zeta Count Rate / kcps [1, 14]: 2224 kcps; Zeta category ( +1 = if > 4 mV;-1 = if < -4 mV; 0 = -4mV to 4 mV) ([2]; category from zeta potential): 1 (+1 = if > 4 mV); Log10 of Rel to EFC (Feb2021) [3, 15]: 0.09417; Rel-to EFC (Feb-2021) [3, 16]: 1.242; n-fold to virus (Feb2021) [3, 17]: 52.19; Log10 of Rel to EFC (Feb2021) [3, 18]: 0.09417; Rel-to EFC (Feb-2021) [3, 19]: 1.242; infectivity [3, 20]: high |
